Measured values taken from ChEMBL document CHEMBL1165867, “Synthesis, structure and structure-activity relationship analysis of caffeic acid amides as potential antimicrobials” (2010).
≈ marks a conversion by molar mass, not a printed value.

Columns and labels:
Assay in all cases: microbe, parasite or virus in culture
Format in all cases: functional
Aspergillus niger = settings: ATCC 16404, 48 h
Description: Antifungal activity against Aspergillus niger ATCC 16404 after 48 hrs by MTT assay

Candida albicans = settings: ATCC 10231, 48 h
Description: Antifungal activity against Candida albicans ATCC 10231 after 48 hrs by MTT assay

Escherichia coli = settings: ATCC 35218, 24 h
Description: Antibacterial activity against Escherichia coli ATCC 35218 after 24 hrs by MTT assay

Bacillus subtilis = settings: ATCC 6633, 24 h
Description: Antibacterial activity against Bacillus subtilis ATCC 6633 after 24 hrs by MTT assay

Staphylococcus aureus = settings: ATCC 6538, 24 h
Description: Antibacterial activity against Staphylococcus aureus ATCC 6538 after 24 hrs by MTT assay

Trichophyton rubrum = settings: ATCC 10218, 48 h
Description: Antifungal activity against Trichophyton rubrum ATCC 10218 after 48 hrs by MTT assay

Pseudomonas fluorescens = settings: ATCC 13525, 24 h
Description: Antibacterial activity against Pseudomonas fluorescens ATCC 13525 after 24 hrs by MTT assay

| Compound | MIC (Aspergillus niger) [µg/mL] | MIC (Candida albicans) [µg/mL] | MIC (Escherichia coli) [µg/mL] | MIC (Bacillus subtilis) [µg/mL] | MIC (Staphylococcus aureus) [µg/mL] | MIC (Trichophyton rubrum) [µg/mL] | MIC (Pseudomonas fluorescens) [µg/mL] |
| --- | --- | --- | --- | --- | --- | --- | --- |
| O=C(/C=C/c1ccc(O)c(O)c1)Nc1ccccc1[N+](=O)[O-] |  | > 50 |  | > 50 | > 50 |  | > 50 |
| CCN(CC)C(=O)/C=C/c1ccc(O)c(O)c1 |  | > 50 |  | > 50 | > 50 |  | > 50 |
| O=C(/C=C/c1ccc(O)c(O)c1)Nc1cccc(Br)c1 |  | > 50 |  | 50 (≈ 150 µM) | > 50 |  | > 50 |
| O=C(O)/C=C/c1ccc(O)c(O)c1 [CAFFEIC ACID] |  | > 50 |  | > 50 | > 50 |  | > 50 |
| O=C(/C=C/c1ccc(O)c(O)c1)Nc1cccc(Cl)c1 |  | > 50 |  | 50 (≈ 173 µM) | 49.2 (≈ 170 µM) |  | > 50 |
| Cc1cccc(NC(=O)/C=C/c2ccc(O)c(O)c2)c1 |  | > 50 |  | 40.2 (≈ 149 µM) | 45.6 (≈ 169 µM) |  | 38.8 (≈ 144 µM) |
| O=C(/C=C/c1ccc(O)c(O)c1)Nc1ccccc1F |  | 33.3 (≈ 122 µM) |  | 50 (≈ 183 µM) | > 50 |  | > 50 |
| O=C(O)/C=C/c1ccc(O)cc1 [COUMARIC ACID] |  | > 50 |  | > 50 | > 50 |  | > 50 |
| O=C(/C=C/c1ccc(O)c(O)c1)N(c1ccccc1)c1ccccc1 |  | > 50 |  | > 50 | > 50 |  | > 50 |
| COc1cccc(NC(=O)/C=C/c2ccc(O)c(O)c2)c1 |  | 44.7 (≈ 157 µM) |  | 50 (≈ 175 µM) | > 50 |  | > 50 |
| CCNC(=O)/C=C/c1ccc(O)c(O)c1 |  | > 50 |  | > 50 | > 50 |  | > 50 |
| CN(C(=O)/C=C/c1ccc(O)c(O)c1)c1ccccc1 |  | > 50 |  | > 50 | > 50 |  | > 50 |
| O=C(/C=C/c1ccc(O)c(O)c1)Nc1ccccc1Cl |  | 42.8 (≈ 148 µM) |  | 45.8 (≈ 158 µM) | > 50 |  | 41.2 (≈ 142 µM) |
| CCNC(=O)/C=C/c1ccc(O)cc1 |  | 50 (≈ 261 µM) |  | > 50 | 45.4 (≈ 237 µM) |  | > 50 |
| O=C(/C=C/c1ccc(O)c(O)c1)Nc1cccc([N+](=O)[O-])c1 |  | > 50 |  | > 50 | > 50 |  | > 50 |
| O=C(/C=C/c1ccc(O)c(O)c1)Nc1cccc(F)c1 |  | > 50 |  | 46.7 (≈ 171 µM) | > 50 |  | > 50 |
| O=C(/C=C/c1ccc(O)c(O)c1)Nc1ccccc1Br |  | 27.5 (≈ 82.3 µM) |  | 49.5 (≈ 148 µM) | > 50 |  | 42.2 (≈ 126 µM) |

Results, then the molecule that gave them:

| MIC (Aspergillus niger) [µg/mL] | MIC (Candida albicans) [µg/mL] | MIC (Escherichia coli) [µg/mL] | MIC (Bacillus subtilis) [µg/mL] | MIC (Staphylococcus aureus) [µg/mL] | MIC (Trichophyton rubrum) [µg/mL] | MIC (Pseudomonas fluorescens) [µg/mL] | Compound |
| --- | --- | --- | --- | --- | --- | --- | --- |
| > 50 | > 50 | > 50 | 7.95 (≈ 29.1 µM) | > 50 | > 50 | > 50 | O=C(/C=C/c1ccc(O)c(O)c1)Nc1ccc(F)cc1 |
|  |  |  | 0.78 (≈ 2.33 µM) | 1.39 (≈ 4.16 µM) |  |  | CC1(C)S[C@@H]2[C@H](NC(=O)Cc3ccccc3)C(=O)N2[C@H]1C(=O)O [PENICILLIN G] |
|  | 50 (≈ 196 µM) |  | 28.4 (≈ 111 µM) | 41.5 (≈ 163 µM) |  | > 50 | O=C(/C=C/c1ccc(O)c(O)c1)Nc1ccccc1 |
|  |  |  | 0.39 (≈ 0.805 µM) | 1.28 (≈ 2.64 µM) |  | 5.08 (≈ 10.5 µM) | NC[C@H]1O[C@H](O[C@H]2[C@H](O)[C@@H](O[C@H]3O[C@H](CO)[C@@H](O)[C@H](N)[C@H]3O)[C@H](N)C[C@@H]2N)[C@H](O)[C@@H](O)[C@@H]1O [KANAMYCIN] |
| > 50 | 42.8 (≈ 150 µM) | > 50 | 3.12 (≈ 10.9 µM) | 50 (≈ 175 µM) | > 50 | > 50 | COc1ccc(NC(=O)/C=C/c2ccc(O)c(O)c2)cc1 |
| > 50 | 49.4 (≈ 165 µM) | > 50 | 15.5 (≈ 51.6 µM) | > 50 | > 50 | > 50 | O=C(/C=C/c1ccc(O)c(O)c1)Nc1ccc([N+](=O)[O-])cc1 |
| > 50 | > 50 | > 50 | 3.89 (≈ 11.6 µM) | > 50 | > 50 | 50 (≈ 150 µM) | O=C(/C=C/c1ccc(O)c(O)c1)Nc1ccc(Br)cc1 |
| > 50 | > 50 | > 50 | 6.25 (≈ 21.6 µM) | 46.8 (≈ 162 µM) | > 50 | 50 (≈ 173 µM) | O=C(/C=C/c1ccc(O)c(O)c1)Nc1ccc(Cl)cc1 |
|  | > 50 |  | 39.8 (≈ 140 µM) | 47.4 (≈ 166 µM) |  | 13.2 (≈ 46.3 µM) | COc1ccccc1NC(=O)/C=C/c1ccc(O)c(O)c1 |
| > 50 | > 50 | > 50 | 1.18 (≈ 4.38 µM) | > 50 | > 50 | 42.2 (≈ 157 µM) | Cc1ccc(NC(=O)/C=C/c2ccc(O)c(O)c2)cc1 |
|  | > 50 |  | 35 (≈ 130 µM) | > 50 |  | 42.5 (≈ 158 µM) | Cc1ccccc1NC(=O)/C=C/c1ccc(O)c(O)c1 |
